{"source": "ChEMBL document CHEMBL1148592", "about": "“Synthesis and antiviral evaluation of cyclic and acyclic 2-methyl-3-hydroxy-4-pyridinone nucleoside derivatives” (J Med Chem, 2006)", "key": {"[1]": {"tested_on": "Human alphaherpesvirus 1", "assay": "Antiviral activity against HSV1 KOS in HEL cells", "format": "functional, organism-based", "conditions": "Human alphaherpesvirus 1, KOS"}, "[2]": {"tested_on": "CCRF-CEM", "assay": "Cytotoxicity in CEM cells", "format": "functional", "conditions": "Homo sapiens"}, "[3]": {"tested_on": "Human immunodeficiency virus 1", "assay": "Antiviral activity against HIV1 IIIB in CEM cells", "format": "functional, organism-based", "conditions": "Human immunodeficiency virus 1, 3B, CCRF-CEM"}, "[4]": {"tested_on": "Human immunodeficiency virus 2", "assay": "Antiviral activity against HIV2 ROD in CEM cells", "format": "functional, organism-based", "conditions": "Human immunodeficiency virus 2, ROD, CCRF-CEM"}, "[5]": {"tested_on": "Human alphaherpesvirus 2", "assay": "Antiviral activity against HSV2 G in HEL cells", "format": "functional, organism-based", "conditions": "Human alphaherpesvirus 2, G"}, "[6]": {"tested_on": "Human alphaherpesvirus 1", "assay": "Antiviral activity against HSV1 TK- in HEL cells", "format": "functional, organism-based", "conditions": "Human alphaherpesvirus 1, TK-"}, "[7]": {"assay": "Minimum toxic concentration in HEL cells", "format": "toxicity, cell-based", "conditions": "human, read-out: MTC"}}}
{"smiles": "Cc1c(O)c(=O)ccn1[C@H]1CC[C@@H](CO)O1", "values": [{"measurement": "EC50", "setting": "[1]", "value": 40, "unit": "µM"}, {"measurement": "CC50", "setting": "[2]", "value": "> 50", "unit": "µM"}, {"measurement": "EC50", "setting": "[3]", "value": "> 50", "unit": "µM"}, {"measurement": "EC50", "setting": "[4]", "value": "> 50", "unit": "µM"}, {"measurement": "EC50", "setting": "[5]", "value": "> 900", "unit": "µM"}, {"measurement": "EC50", "setting": "[6]", "value": 500, "unit": "µM"}, {"measurement": "MCC", "setting": "[7]", "value": "> 900", "unit": "µM"}]}
{"smiles": "Cc1c(O)c(=O)ccn1[C@H]1CC[C@H](CO)O1", "values": [{"measurement": "EC50", "setting": "[1]", "value": 177, "unit": "µM"}, {"measurement": "CC50", "setting": "[2]", "value": 84, "unit": "µM"}, {"measurement": "EC50", "setting": "[3]", "value": "> 90", "unit": "µM"}, {"measurement": "EC50", "setting": "[4]", "value": "> 90", "unit": "µM"}, {"measurement": "EC50", "setting": "[5]", "value": "> 177", "unit": "µM"}, {"measurement": "EC50", "setting": "[6]", "value": "> 177", "unit": "µM"}, {"measurement": "MCC", "setting": "[7]", "value": "> 900", "unit": "µM"}]}
{"smiles": "Cc1c(O)c(=O)ccn1CCOCP(=O)(O)O", "values": [{"measurement": "EC50", "setting": "[1]", "value": "> 200", "unit": "µM"}, {"measurement": "CC50", "setting": "[2]", "value": "> 50", "unit": "µM"}, {"measurement": "EC50", "setting": "[3]", "value": "> 50", "unit": "µM"}, {"measurement": "EC50", "setting": "[4]", "value": "> 50", "unit": "µM"}, {"measurement": "EC50", "setting": "[5]", "value": "> 200", "unit": "µM"}, {"measurement": "MCC", "setting": "[7]", "value": "> 200", "unit": "µM"}]}
{"smiles": "Cc1c(O)c(=O)ccn1[C@@H]1CC[C@@H](CO)O1", "values": [{"measurement": "EC50", "setting": "[1]", "value": 177, "unit": "µM"}, {"measurement": "CC50", "setting": "[2]", "value": 101, "unit": "µM"}, {"measurement": "EC50", "setting": "[3]", "value": "> 50", "unit": "µM"}, {"measurement": "EC50", "setting": "[4]", "value": "> 50", "unit": "µM"}, {"measurement": "EC50", "setting": "[5]", "value": "> 177", "unit": "µM"}, {"measurement": "EC50", "setting": "[6]", "value": "> 177", "unit": "µM"}, {"measurement": "MCC", "setting": "[7]", "value": "> 900", "unit": "µM"}]}
{"smiles": "Cc1c(OCc2ccccc2)c(=O)ccn1[C@H]1CC[C@@H](CO)O1", "values": [{"measurement": "EC50", "setting": "[1]", "value": "> 200", "unit": "µM"}, {"measurement": "CC50", "setting": "[2]", "value": "> 150", "unit": "µM"}, {"measurement": "EC50", "setting": "[3]", "value": "> 150", "unit": "µM"}, {"measurement": "EC50", "setting": "[4]", "value": "> 150", "unit": "µM"}, {"measurement": "EC50", "setting": "[5]", "value": "> 200", "unit": "µM"}, {"measurement": "EC50", "setting": "[6]", "value": "> 200", "unit": "µM"}, {"measurement": "MCC", "setting": "[7]", "value": "> 900", "unit": "µM"}]}
{"smiles": "Cc1c(O)c(=O)ccn1[C@@H]1CS[C@@H](CO)O1", "note": "(racemic)", "values": [{"measurement": "EC50", "setting": "[1]", "value": 40, "unit": "µM"}, {"measurement": "CC50", "setting": "[2]", "value": 188, "unit": "µM"}, {"measurement": "EC50", "setting": "[3]", "value": "> 80", "unit": "µM"}, {"measurement": "EC50", "setting": "[4]", "value": "> 80", "unit": "µM"}, {"measurement": "EC50", "setting": "[5]", "value": 90, "unit": "µM"}, {"measurement": "EC50", "setting": "[6]", "value": 95, "unit": "µM"}, {"measurement": "MCC", "setting": "[7]", "value": "> 400", "unit": "µM"}]}
{"smiles": "Cc1c(O)c(=O)ccn1[C@H]1CS[C@@H](CO)O1", "note": "(racemic)", "values": [{"measurement": "EC50", "setting": "[1]", "value": 32, "unit": "µM"}, {"measurement": "CC50", "setting": "[2]", "value": 188, "unit": "µM"}, {"measurement": "EC50", "setting": "[3]", "value": "> 80", "unit": "µM"}, {"measurement": "EC50", "setting": "[4]", "value": "> 80", "unit": "µM"}, {"measurement": "EC50", "setting": "[5]", "value": 81, "unit": "µM"}, {"measurement": "EC50", "setting": "[6]", "value": 80, "unit": "µM"}, {"measurement": "MCC", "setting": "[7]", "value": "> 400", "unit": "µM"}]}
{"smiles": "Nc1nc2c(ncn2COCCO)c(=O)[nH]1", "note": "[ACYCLOVIR]", "values": [{"measurement": "EC50", "setting": "[1]", "value": 1.12, "unit": "µM"}, {"measurement": "EC50", "setting": "[3]", "value": "> 50", "unit": "µM"}, {"measurement": "EC50", "setting": "[4]", "value": "> 50", "unit": "µM"}, {"measurement": "EC50", "setting": "[5]", "value": 1.76, "unit": "µM"}, {"measurement": "EC50", "setting": "[6]", "value": 86.6, "unit": "µM"}, {"measurement": "MCC", "setting": "[7]", "value": "> 1700", "unit": "µM"}]}
{"smiles": "Nc1ccn(C[C@@H](CO)OCP(=O)(O)O)c(=O)n1", "note": "[CIDOFOVIR]", "values": [{"measurement": "EC50", "setting": "[1]", "value": 0.57, "unit": "µM"}, {"measurement": "EC50", "setting": "[3]", "value": "> 10", "unit": "µM"}, {"measurement": "EC50", "setting": "[4]", "value": "> 10", "unit": "µM"}, {"measurement": "MCC", "setting": "[7]", "value": "> 350", "unit": "µM"}]}
{"smiles": "Nc1nc2c(ncn2COC(CO)CO)c(=O)[nH]1", "note": "[GANCICLOVIR]", "values": [{"measurement": "EC50", "setting": "[3]", "value": "> 50", "unit": "µM"}, {"measurement": "EC50", "setting": "[4]", "value": "> 50", "unit": "µM"}, {"measurement": "EC50", "setting": "[5]", "value": 0.06, "unit": "µM"}]}
{"smiles": "Cc1cn([C@H]2C[C@H](N=[N+]=[N-])[C@@H](CO)O2)c(=O)[nH]c1=O", "note": "[ZIDOVUDINE]", "values": [{"measurement": "CC50", "setting": "[2]", "value": "> 100", "unit": "µM"}, {"measurement": "EC50", "setting": "[3]", "value": 0.0055, "unit": "µM"}, {"measurement": "EC50", "setting": "[4]", "value": 0.0055, "unit": "µM"}]}
